pEC50: −log10 of the molar value.
Key:
Assay type in all cases: cell-based
[1] = test system: NCI-H2052 mesothelioma cell line; assay: Mesothelioma cell line proliferation assay, NCI-H2052; conditions: NCI-H2052, 6 days with compound, cell viability by ATPlite
Method: (§1) Mesothelioma cell lines, NCI-H226 and NCI-H2052 (all sourced from the ATCC cell culture collection) are plated in 96-well plates (Corning® 96 Well White Polystyrene Microplate clear flat bottom, white polystyrene (TC-Treated)), at 1500 cells/well in full medium (RPMI 1640 ATCC modification with L-glutamine, HEPES, Phenol Red, Sodium Pyruvate, High glucose, Low sodium bicarbonate and 10% fetal bovine serum). Cells are incubated overnight at 37° C. in an incubator with 5% CO2. Then compounds, dissolved in DMSO, are added in dose-response. Cells are incubated with compound dilutions for another 6 days at 37° C. in an incubator with 5% CO2. Cell viability is quantitated using the ATPlite kit (Perkin-Elmer) and the luminescence is read-out using an Envision instrument (Perkin-Elmer). The amount of relative light units produced using the ATPlite kit is used to calculated percent of inhibition.
(§2) The activities of example compounds tested are depicted in the table below. The activity ranges A, B and C refer to EC50 values in the mesothelioma cell line proliferation assay as described as follows: “A”: EC50 <1 μM; “B” : 1 μM EC50 ≤10 μM and “C” : EC50 >10 μM. NT: not tested.

[2] = test system: YAP/TAZ-TEAD transcription; assay: Reporter gene assay for measuring the inhibition of YAP/TAZ-TEAD transcription (TEAD-responsive element luciferase reporter in Hek293T cells); conditions: Hek293T cells transiently transfected with TEAD-responsive element luciferase reporter, 24 hours incubation
Procedure, shortened: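 Hek293T cells transiently transfected with TEAD-responsive luciferase reporter, exposed to compound for 24 h at 37° C/5% CO2, then read by luminescence. Percent inhibition normalized to vehicle (0%) and positive control inhibitor (100%); EC50 reported as activity ranges.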

[3] = test system: NCI-H226 mesothelioma cell line; assay: Mesothelioma cell line proliferation assay, NCI-H226; conditions: NCI-H226, 6 days with compound, cell viability by ATPlite
Method: as §1, §2

Compound	pEC50 [1]	pEC50 [2]	pEC50 [3]	pEC50 ([1]; Homo sapiens, NCI-H2052, 144 h)	pEC50 ([2]; Homo sapiens, HEK-293T, 24 h)	pEC50 ([3]; Homo sapiens, NCI-H226, 144 h)
FC(F)(F)c1ccc(N2CC(C3CC(Br)=NO3)Cn3nccc32)cc1 (single isomer, unassigned) [Cpd. No. 086-Dia2, 3-bromo-5-(4-(4-(trifluoromethyl)phenyl)-4,5,6,7-tetrahydropyrazolo[1,5-a]pyrimidin-6-yl)-4,5-dihydroisoxazole]	> 6.00	> 6.00	> 6.00			
C=CC(=O)NCC1CN(c2ccc(C(F)(F)F)cc2)c2ccnn2C1 (stereo not drawn) [Cpd. No. 002, N-((4-(4-(trifluoromethyl)phenyl)-4,5,6,7-tetrahydropyrazolo[1,5-a]pyrimidin-6-yl)methyl)acrylamide]				> 6.00	> 6.00	> 6.00
C=CC(=O)NCC1CN(c2ccc(Cl)cc2)c2ccnn2C1 (stereo not drawn) [Cpd. No. 005, N-((4-(4-chlorophenyl)-4,5,6,7-tetrahydropyrazolo[1,5-a]pyrimidin-6-yl)methyl)acrylamide]				> 6.00	> 6.00	> 6.00
C=CC(=O)NCC1CN(c2ccc(C(F)(F)F)nc2)c2ccnn2C1 (stereo not drawn) [Cpd. No. 007, N-((4-(6-(trifluoromethyl)pyridin-3-yl)-4,5,6,7-tetrahydropyrazolo[1,5-a]pyrimidin-6-yl)methyl)acrylamide]				< 5.00	> 6.00	< 5.00
C=CC(=O)NCC1CN(c2ccc(OC(F)(F)F)cc2)c2ccnn2C1 (stereo not drawn) [Cpd. No. 011, N-((4-(4-(trifluoromethoxy)phenyl)-4,5,6,7-tetrahydropyrazolo[1,5-a]pyrimidin-6-yl)methyl)acrylamide]	> 6.00				> 6.00	> 6.00
C=CC(=O)NCC1CN(c2ccc(OC(F)F)cc2)c2ccnn2C1 (stereo not drawn) [Cpd. No. 012, N-((4-(4-(difluoromethoxy)phenyl)-4,5,6,7-tetrahydropyrazolo[1,5-a]pyrimidin-6-yl)methyl)acrylamide]	> 6.00				> 6.00	> 6.00
C=CC(=O)NCC1CN(c2ccc(C(C)C)cc2)c2ccnn2C1 (stereo not drawn) [Cpd. No. 013, N-((4-(4-isopropylphenyl)-4,5,6,7-tetrahydropyrazolo[1,5-a]pyrimidin-6-yl)methyl)acrylamide]				> 6.00	> 6.00	> 6.00
C=CC(=O)NCC1CN(c2ccc(C(F)(F)F)c(F)c2)c2ccnn2C1 (stereo not drawn) [Cpd. No. 015, N-((4-(3-fluoro-4-(trifluoromethyl)phenyl)-4,5,6,7-tetrahydropyrazolo[1,5-a]pyrimidin-6-yl)methyl)acrylamide]				> 6.00	> 6.00	> 6.00
C=CC(=O)NCC1CN(c2ccc(C(F)(F)F)cc2F)c2ccnn2C1 (stereo not drawn) [Cpd. No. 016, N-((4-(2-fluoro-4-(trifluoromethyl)phenyl)-4,5,6,7-tetrahydropyrazolo[1,5-a]pyrimidin-6-yl)methyl)acrylamide]	> 6.00				> 6.00	> 6.00
CS(=O)(=O)NCC1CN(c2ccc(C(F)(F)F)cc2)c2ccnn2C1 (stereo not drawn) [Cpd. No. 027, N-((4-(4-(trifluoromethyl)phenyl)-4,5,6,7-tetrahydropyrazolo[1,5-a]pyrimidin-6-yl)methyl)methanesulfonamide]				< 5.00	< 4.70	< 5.00
C=CC(=O)NCC1CN(c2ccc(C(F)(F)F)cc2)c2cc(C)nn2C1 (stereo not drawn) [Cpd. No. 029, N-((2-methyl-4-(4-(trifluoromethyl)phenyl)-4,5,6,7-tetrahydropyrazolo[1,5-a]pyrimidin-6-yl)methyl)acrylamide]				> 6.00	> 6.00	> 6.00
C=CC(=O)NCC1CN(c2ccc(C(F)(F)F)cc2)c2cc(C3CC3)nn2C1 (stereo not drawn) [Cpd. No. 031, N-((2-cyclopropyl-4-(4-(trifluoromethyl)phenyl)-4,5,6,7-tetrahydropyrazolo[1,5-a]pyrimidin-6-yl)methyl)acrylamide]				> 6.00	> 6.00	> 6.00
C=CC(=O)NCC1CN(c2ccc(C(F)(F)F)cc2)c2cc(CC3CC3)nn2C1 (stereo not drawn) [Cpd. No. 032, N-((2-(cyclopropylmethyl)-4-(4-(trifluoromethyl)phenyl)-4,5,6,7-tetrahydropyrazolo[1,5-a]pyrimidin-6-yl)methyl)acrylamide]				> 6.00	> 6.00	> 6.00
C=CC(=O)NCC1CN(c2ccc(C(F)(F)F)cc2)c2cc(C(F)(F)F)nn2C1 (stereo not drawn) [Cpd. No. 034, N-((2-(trifluoromethyl)-4-(4-(trifluoromethyl)phenyl)-4,5,6,7-tetrahydropyrazolo[1,5-a]pyrimidin-6-yl)methyl)acrylamide]				> 6.00	> 6.00	> 6.00
C#CC(=O)NCC1CN(c2ccc(C(F)(F)F)cc2)c2ccnn2C1 (stereo not drawn) [Cpd. No. 038, N-((4-(4-(trifluoromethyl)phenyl)-4,5,6,7-tetrahydropyrazolo[1,5-a]pyrimidin-6-yl)methyl)propiolamide]				> 6.00	> 6.00	5.00 to 6.00
C=C(F)C(=O)NCC1CN(c2ccc(C(F)(F)F)cc2)c2ccnn2C1 (stereo not drawn) [Cpd. No. 039, 2-fluoro-N-((4-(4-(trifluoromethyl)phenyl)-4,5,6,7-tetrahydropyrazolo[1,5-a]pyrimidin-6-yl)methyl)acrylamide]				> 6.00	> 6.00	> 6.00
C=C(C)C(=O)NCC1CN(c2ccc(C(F)(F)F)cc2)c2ccnn2C1 (stereo not drawn) [Cpd. No. 040, N-((4-(4-(trifluoromethyl)phenyl)-4,5,6,7-tetrahydropyrazolo[1,5-a]pyrimidin-6-yl)methyl)methacrylamide]				< 5.00	> 6.00	> 6.00
C=CC(=O)NCC1CN(Cc2ccc(C(F)(F)F)cc2)c2ccnn2C1 (stereo not drawn) [Cpd. No. 048, N-((4-(4-(trifluoro-methyl)benzyl)-4,5,6,7-tetrahydropyrazolo[1,5-a]pyrimidin-6-yl)methyl)acrylamide]				> 6.00	> 6.00	> 6.00
C=CC(=O)NCC1CN(Cc2cccc(C(F)(F)F)c2)c2ccnn2C1 (stereo not drawn) [Cpd. No. 052, N-((4-(3-(trifluoro-methyl)benzyl)-4,5,6,7-tetrahydropyrazolo[1,5-a]pyrimidin-6-yl)methyl)acrylamide]				> 6.00	> 6.00	> 6.00
C=CC(=O)NCC1CN(c2ccc(C(F)(F)F)cc2)c2c(Br)cnn2C1 (stereo not drawn) [Cpd. No. 058, N-((3-bromo-4-(4-(trifluoromethyl)phenyl)-4,5,6,7-tetrahydropyrazolo[1,5-a]pyrimidin-6-yl)-methyl)acrylamide]				5.00 to 6.00	> 6.00	> 6.00
C=CC(=O)NCC1CNc2c(CC#Cc3ccccc3)cnn2C1 (stereo not drawn) [Cpd. No. 059, N-((3-(3-phenylprop-2-yn-1-yl)-4,5,6,7-tetrahydropyrazolo[1,5-a]pyrimidin-6-yl)-methyl)acrylamide]				< 5.00	> 6.00	< 5.00
C=CC(=O)NC1CN(c2ccc(C(F)(F)F)cc2)c2ccnn2C1 (stereo not drawn) [Cpd. No. 061, N-(4-(4-(trifluoromethyl)phenyl)-4,5,6,7-tetrahydropyrazolo[1,5-a]pyrimidin-6-yl)acrylamide]				> 6.00	> 6.00	> 6.00
